Experiments:
rice = assay: Test B flood test rice; type: in vivo, Oryza sativa
How it was run: (§1)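 Each value is a visual injury score relative to controls, with 10 meaning complete control and 0 no effect. Evaluation took place twelve to sixteen days after the 2-leaf-stage plants were treated and kept in the greenhouse.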

crabgrass = assay: Test B pre/postemergence crabgrass; type: in vivo, Digitaria sanguinalis
How it was run: (§2)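 Herbicidal effect was estimated by eye on a ten-point control scale after plants spent twelve to sixteen days in a greenhouse following soil or foliar treatment. Foliar sprays targeted plants at one to four leaves; all doses were formulated in a non-phytotoxic solvent with surfactant.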

giant foxtail = assay: Test B pre/postemergence giant foxtail; type: in vivo, Setaria faberii
How it was run: as §2

cocklebur = assay: Test B pre/postemergence cocklebur; type: in vivo, Xanthium strumarium
How it was run: as §2

duck salad = assay: Test B flood test duck salad; type: in vivo, Heteranthera limosa
How it was run: as §1

soybean = assay: Test B pre/postemergence soybean; type: in vivo, Glycine max
How it was run: as §2

wild oat = assay: Test B pre/postemergence wild oat; type: in vivo, Avena fatua
How it was run: as §2

blackgrass = assay: Test B pre/postemergence blackgrass; type: in vivo, Alopecurus myosuroides
How it was run: as §2

sugar beet = assay: Test B pre/postemergence sugar beet; type: in vivo, Beta vulgaris
How it was run: as §2

pigweed = assay: Test B pre/postemergence pigweed; type: in vivo, Amaranthus retroflexus
How it was run: as §2

smallflower flatsedge = assay: Test B flood test smallflower flatsedge; type: in vivo, Cyperus difformis
How it was run: as §1

morningglory = assay: Test B pre/postemergence morningglory; type: in vivo, Ipomoea hederacea
How it was run: as §2

rape = assay: Test B pre/postemergence rape; type: in vivo, Brassica napus
How it was run: as §2

velvetleaf = assay: Test B pre/postemergence velvetleaf; type: in vivo, Abutilon theophrasti
How it was run: as §2

wheat = assay: Test B pre/postemergence wheat; type: in vivo, Triticum aestivum
How it was run: as §2

bamyardgrass = assay: Test B flood test barnyardgrass; type: in vivo, Echinochloa crus-galli
How it was run: as §1

purple nutsedge = assay: Test B pre/postemergence purple nutsedge; type: in vivo, Cyperus rotundus
How it was run: as §2

surinam grass = assay: Test B pre/postemergence surinam grass; type: in vivo, Brachiaria decumbens
How it was run: as §2

corn = assay: Test B pre/postemergence corn; type: in vivo, Zea mays
How it was run: as §2

[1] = Rate 62 g/ha, flood test species, Pre-emergence, visual evaluation after twelve to sixteen days
[2] = Rate 125 g/ha, under heading Pre-emergence, flood test species, visual evaluation after twelve to sixteen days
[3] = Rate 250 g/ha, Pre-emergence (flood test species), scale 0 to 10, 0 is no effect, 10 is complete control
[4] = Rate 500 g/ha, Pre-emergence section of Table B, 0 to 10 scale (0 no effect, 10 complete control)
[5] = Postemergence, Rate 125 g/ha, scale 0 to 10, 0 is no effect, 10 is complete control
[6] = Postemergence, Rate 250 g/ha, scale 0 to 10
[7] = Postemergence, Rate 500 g/ha, scale 0 to 10, 0 is no effect, 10 is complete control
[8] = Preemergence, Rate 62 g/ha, scale of 0 to 10 where 0 is no effect and 10 is complete control
[9] = Preemergence, Rate 125 g/ha, scale 0 to 10, 0 is no effect, 10 is complete control
[10] = Preemergence, Rate 500 g/ha, scale of 0 to 10 where 0 is no effect and 10 is complete control
[11] = Rate 62 g/ha, Postemergence, scale 0 to 10 (0 no effect, 10 complete control)
[12] = Preemergence, Rate 250 g/ha, scale 0 to 10, 0 is no effect, 10 is complete control

Compound: CC(C)N(C(=O)n1oc(=O)n(CC2=NCCO2)c1=O)c1ccccc1 [Compound 495]
- Plant response rating, Rice (0 to 10 scale, 0 is no effect, 10 is complete control) (rice; [1]): 0
- Rice plant response rating (0 to 10 scale, 0 is no effect, 10 is complete control) (rice; [2]): 0
- Rice plant response rating (rice; [3]): 0
- Rice plant response rating (rice; [4]): 0
- Crabgrass plant response rating (crabgrass; [5]): 0
- Crabgrass plant response rating (crabgrass; [6]): 0
- Plant response rating, Crabgrass (crabgrass; [7]): 0
- Plant response rating, Crabgrass (crabgrass; [8]): 0
- Crabgrass plant response rating (crabgrass; [9]): 0
- Crabgrass plant response rating (crabgrass; [10]): 0
- Crabgrass plant response rating (crabgrass; [11]): 0
- Giant foxtail plant response rating (giant foxtail; [5]): 0
- Plant response rating, Giant foxtail (giant foxtail; [7]): 0
- Plant response rating, Giant foxtail (giant foxtail; [8]): 0
- Giant foxtail plant response rating (giant foxtail; [9]): 0
- Giant foxtail plant response rating (giant foxtail; [10]): 0
- Giant foxtail plant response rating (giant foxtail; [11]): 0
- Cocklebur plant response rating (cocklebur; [5]): 0
- Cocklebur plant response rating (cocklebur; [6]): 0
- Plant response rating, Cocklebur (cocklebur; [7]): 0
- Plant response rating, Cocklebur (cocklebur; [8]): 0
- Cocklebur plant response rating (cocklebur; [9]): 0
- Cocklebur plant response rating (cocklebur; [12]): 0
- Cocklebur plant response rating (cocklebur; [10]): 0
- Cocklebur plant response rating (cocklebur; [11]): 0
- Plant response rating, Ducksalad (0 to 10 scale, 0 is no effect, 10 is complete control) (duck salad; [1]): 0
- Ducksalad plant response rating (0 to 10 scale, 0 is no effect, 10 is complete control) (duck salad; [2]): 0
- Ducksalad plant response rating (duck salad; [3]): 0
- Ducksalad plant response rating (duck salad; [4]): 0
- Soybean plant response rating (soybean; [5]): 0
- Plant response rating, Soybean (soybean; [7]): 0
- Plant response rating, Soybean (soybean; [8]): 0
- Soybean plant response rating (soybean; [9]): 0
- Soybean plant response rating (soybean; [10]): 0
- Soybean plant response rating (soybean; [11]): 0
- Wild oats plant response rating (wild oat; [5]): 0
- Plant response rating, Wild oats (wild oat; [7]): 0
- Plant response rating, Wild oats (wild oat; [8]): 0
- Wild oats plant response rating (wild oat; [9]): 0
- Wild oats plant response rating (wild oat; [10]): 0
- Wild oats plant response rating (wild oat; [11]): 0
- Blackgrass plant response rating (blackgrass; [5]): 0
- Blackgrass plant response rating (blackgrass; [6]): 0
- Plant response rating, Blackgrass (blackgrass; [7]): 0
- Plant response rating, Blackgrass (blackgrass; [8]): 0
- Blackgrass plant response rating (blackgrass; [9]): 0
- Blackgrass plant response rating (blackgrass; [12]): 0
- Blackgrass plant response rating (blackgrass; [10]): 0
- Blackgrass plant response rating (blackgrass; [11]): 0
- Sugarbeets plant response rating (sugar beet; [5]): 0
- Plant response rating, Sugarbeets (sugar beet; [7]): 0
- Plant response rating, Sugarbeets (sugar beet; [8]): 0
- Sugarbeets plant response rating (sugar beet; [9]): 0
- Sugarbeets plant response rating (sugar beet; [10]): 0
- Sugarbeets plant response rating (sugar beet; [11]): 0
- Redroot pigweed plant response rating (pigweed; [5]): 0
- Plant response rating, Redroot pigweed (pigweed; [7]): 0
- Plant response rating, Redroot pigweed (pigweed; [8]): 0
- Redroot pigweed plant response rating (pigweed; [9]): 0
- Redroot pigweed plant response rating (pigweed; [10]): 0
- Redroot pigweed plant response rating (pigweed; [11]): 0
- Plant response rating, S. Flatsedge (0 to 10 scale, 0 is no effect, 10 is complete control) (smallflower flatsedge; [1]): 0
- S. Flatsedge plant response rating (0 to 10 scale, 0 is no effect, 10 is complete control) (smallflower flatsedge; [2]): 0
- S. Flatsedge plant response rating (smallflower flatsedge; [3]): 0
- S. Flatsedge plant response rating (smallflower flatsedge; [4]): 0
- Morningglory plant response rating (morningglory; [5]): 1
- Plant response rating, Morningglory (morningglory; [7]): 7
- Plant response rating, Morningglory (morningglory; [8]): 0
- Morningglory plant response rating (morningglory; [9]): 0
- Morningglory plant response rating (morningglory; [10]): 0
- Morningglory plant response rating (morningglory; [11]): 1
- Rape plant response rating (rape; [5]): 0
- Plant response rating, Rape (rape; [7]): 0
- Plant response rating, Rape (rape; [8]): 0
- Rape plant response rating (rape; [9]): 0
- Rape plant response rating (rape; [10]): 0
- Rape plant response rating (rape; [11]): 0
- Velvetleaf plant response rating (velvetleaf; [5]): 0
- Plant response rating, Velvetleaf (velvetleaf; [7]): 0
- Plant response rating, Velvetleaf (velvetleaf; [8]): 0
- Velvetleaf plant response rating (velvetleaf; [9]): 0
- Velvetleaf plant response rating (velvetleaf; [10]): 0
- Velvetleaf plant response rating (velvetleaf; [11]): 0
- Wheat plant response rating (wheat; [5]): 0
- Plant response rating, Wheat (wheat; [7]): 0
- Plant response rating, Wheat (wheat; [8]): 0
- Wheat plant response rating (wheat; [9]): 0
- Wheat plant response rating (wheat; [10]): 0
- Wheat plant response rating (wheat; [11]): 0
- Plant response rating, Barnyardgrass (0 to 10 scale, 0 is no effect, 10 is complete control) (bamyardgrass; [1]): 0
- Barnyardgrass plant response rating (0 to 10 scale, 0 is no effect, 10 is complete control) (bamyardgrass; [2]): 0
- Barnyardgrass plant response rating (bamyardgrass; [3]): 0
- Barnyardgrass plant response rating (bamyardgrass; [4]): 0
- Nutsedge plant response rating (purple nutsedge; [5]): 0
- Plant response rating, Nutsedge (purple nutsedge; [7]): 0
- Plant response rating, Nutsedge (purple nutsedge; [8]): 0
- Nutsedge plant response rating (purple nutsedge; [9]): 0
- Nutsedge plant response rating (purple nutsedge; [10]): 0
- Nutsedge plant response rating (purple nutsedge; [11]): 0
- B. signalgrass plant response rating (surinam grass; [5]): 0
- B. signalgrass plant response rating (surinam grass; Postemergence, Rate 250 g/ha, scale 0 to 10, 0 no effect, 10 complete control): 0
- Plant response rating, B. signalgrass (surinam grass; [7]): 0
- Plant response rating, B. signalgrass (surinam grass; [8]): 0
- B. signalgrass plant response rating (surinam grass; [9]): 0
- B. signalgrass plant response rating (surinam grass; [12]): 0
- B. signalgrass plant response rating (surinam grass; Preemergence, Rate 500 g/ha, scale 0 to 10, 0 is no effect, 10 is complete control): 0
- B. signalgrass plant response rating (surinam grass; [11]): 0
- Corn plant response rating (corn; [5]): 0
- Corn plant response rating (corn; [6]): 0
- Plant response rating, Corn (corn; [7]): 0
- Plant response rating, Corn (corn; [8]): 0
- Corn plant response rating (corn; [9]): 0
- Corn plant response rating (corn; [10]): 0
- Corn plant response rating (corn; [11]): 0

Source: patent publication US6737383B1, “Herbicidal oxadiazolidines” (priority 1999, dated 2004)
